Laboratory results reported in patent publication US4352804A, “Oxime ethers, their preparation and pharmaceutical compositions containing them” (ACF Chemiefarma NV, priority 1978, dated 1982).
Structures can show the parent of a compound that is named as a salt. Where two headings read alike, the source gives them in different places.

Experiments:
[1] = J. Pharm. Sci. 58, 138-141 (1969); cited from earlier work
[2] = tested on: indomethacin induced gastric damage in the rat; assay: Anti-ulcer activity: inhibition of indomethacin induced gastric damage; assay type: in vivo; conditions: po, 5 h, Table 2, *50 mg/kg orally, 30 min prior to and 2 h after indomethacin 15 mg/kg s.c.
[3] = tested on: Gastric Secretion, in the Pyloric Ligated Rat; assay: Effects on gastric secretion in the pyloric ligated rat (Shay method); assay type: in vivo; conditions: intraduodenal, Table 1, 100 mg/kg i.d., 3 hours, mean of a number of experiments vs vehicle control
Protocol: 1. Effects on Gastric Secretion, in the Pyloric Ligated Rat.
The method as described by Shay et al. (Gastroenterol. 26, 906 (1945)) was used. After overnight starvation, the pylorus was ligated under halothane anaesthesia, and the compound under test or vehicle only administered intraduodenally and the rats allowed to recover. They were sacrificed three hours later and the gastric juice removed. After measurement of the volume of secretion, its hydrogen ion concentration [H^+ ] was determined by titration with 0.05 n NaOH to pH 7. Groups of 4-6 animals were used for each treatment and the inhibitory effects of the compound were ascertained by comparison of the mean values obtained with those from a simultaneously set up control group of animals which received vehicle only. Students `t` test was applied for significance between groups. The mean values for % inhibition obtained for a number of experiments are shown in the following Table 1, the dosage being 100 mg/kg i.d.

[4] = tested on: indomethacin induced gastric damage in the rat; assay: Anti-ulcer activity: inhibition of indomethacin induced gastric damage; assay type: in vivo; conditions: po, 5 h, Table 2, 100 mg/kg orally, 30 min prior to and 2 h after indomethacin 15 mg/kg s.c.
Protocol: This was assessed by the inhibition of indomethacin induced gastric damage in the rat according to the method of Elegbe (Israeli J. Med. Sci. 10, 1451 (1974)).
Rats were starved overnight, given indomethacin subcutaneously (15 mg/kg) and sacrificed 5 hours later. Stomachs were inflated with 0.9% saline, cut along the greater curvature, pinned out and scored for gastric damage by the following system:
Score 1-3 according to the degree of erythema and slight haemorrhage.
Score 4-6 according to the degree of mucosal erosion.
Score 7-9 according to the depth of gastric damage. Groups of 7 rats were used for each treatment level of the compound under test and a similar group receiving vehicle only was set up on each occasion of testing. Compound or vehicle was administered orally 30 minutes prior to, and at 2 hours after, dosing with indomethacin. Mean values per treatment were obtained using the above scoring system and the Mann Witney test applied for significance between such values. The mean inhibition of gastric damage from a number of experiments is shown in the following Table 2; the dosage being 100 mg/kg orally.

[5] = Farmaco, Ed. Sci. 19, 668-702 (1964); cited from earlier work
[6] = read-out: % Inhibition, Volume (of gastric secretion)
[7] = read-out: % Inhibition, [H^+ ] (hydrogen ion concentration of gastric juice)

Row | Molecule | inhibition in vivo at 100 mg/kg [3, 6] | inhibition in vivo at 100 mg/kg [3, 7] | inhibition in vivo at 100 mg/kg [4] | other results
1 | COc1ccc(C(=NOCCN(C)C)c2cccs2)cc1 [4-methoxyphenyl 2-thienyl ketone, O-dimethylaminoethyl oxime] | – | – | – | effective dose versus toxic dose [1]: the effective dose was very close to the toxic dose
2 | CO/N=C(/c1ccccc1)c1cnccn1 [Compound 1, Phenyl pyrazinyl ketone, O-methyl oxime] | 77% | 23% | – | inhibition in vivo at 50 mg/kg [2]: 74%
3 | CO/N=C(/c1ccc(Cl)cc1)c1cnccn1 [Compound 2, 4-chlorophenyl pyrazinyl ketone, O-methyl oxime] | 68% | 21% | 68% | –
4 | CO/N=C(/c1ccc(F)cc1)c1cnccn1 [Compound 7, 4-fluorophenyl pyrazinyl ketone, O-methyl oxime] | 72% | – | 96% | –
5 | CO/N=C(\c1ccc(F)cc1)c1cnccn1 [Compound 8, 4-fluorophenyl pyrazinyl ketone, O-methyl oxime] | 72% | – | 96% | –
6 | CON=C(c1ccccc1)c1c(C)cc2ccccn12 [Compound 9, 2-methyl-3-indolizinyl phenyl ketone, O-methyl oxime] | 83% | 52% | – | –
7 | CO/N=C(\c1ccccc1)c1cn2ccccc2n1 [Compound 10, 2-imidazo[1,2-a]pyridinyl phenyl ketone, O-methyl oxime] | 66% | 23% | – | inhibition in vivo at 50 mg/kg [2]: 89%
8 | CO/N=C(/c1ccccc1)c1cn2ccccc2n1 [Compound 11, 2-imidazo[1,2-a]pyridinyl phenyl ketone, O-methyl oxime] | 77% | – | – | inhibition in vivo at 50 mg/kg [2]: 67%
9 | CO/N=C(\c1ccccc1)c1cnc2ccccn12 [Compound 12, 3-imidazo[1,2-a]pyridinyl phenyl ketone, O-methyl oxime] | 55% | 25% | 61% | –
10 | CON=C(c1ccccc1)c1c(C)nc2ccccn12 [Compound 14, 2-methyl-3-imidazo[1,2-a]pyridinyl phenyl ketone, O-methyl oxime.HCl] | 59% | 23% | 78% | –
11 | CO/N=C(\c1ccccc1)c1ncc[nH]1 [Compound 17, 2-imidazolyl phenyl ketone, O-methyl oxime] | 55% | 26% | 100% | –
12 | CO/N=C(/c1ccccc1)c1ncc[nH]1 [Compound 18, 2-imidazolyl phenyl ketone, O-methyl oxime] | 87% | – | 91% | –
13 | CON=C(c1ccccc1)c1nccn1C [Compound 19, 1-methyl-2-imidazolyl phenyl ketone, O-methyl oxime] | 69% | 49% | 91% | –
14 | CON=C(c1ccccc1)c1nc2ccccc2[nH]1 [Compound 20, 2-benzimidazolyl phenyl ketone, O-methyl oxime] | – | – | 78% | –
15 | CO/N=C(\c1ccccc1)c1nccs1 [Compound 21, phenyl 2-thiazolyl ketone, O-methyl oxime] | 57% | – | 89% | –
16 | CO/N=C(/c1ccccc1)c1nccs1 [Compound 22, phenyl 2-thiazolyl ketone, O-methyl oxime.HBr] | 68% | – | 78% | –

Row | Molecule | inhibition in vivo at 100 mg/kg [3, 6] | inhibition in vivo at 100 mg/kg [3, 7] | inhibition in vivo at 100 mg/kg [4] | other results
17 | CON=C(c1cnccn1)c1ccco1 [Compound 23, 2-furanyl pyrazinyl ketone, O-methyl oxime] | 67% | – | 98% | –
18 | N#CCON=C(c1ccccc1)c1cnccn1 [Compound 24, Phenyl pyrazinyl ketone, O-cyanomethyl oxime] | – | – | 93% | –
19 | C=CCON=C(c1ccccc1)c1cnccn1 [Compound 25, phenyl pyrazinyl ketone, O-allyl oxime] | 87% | 27% | 56% | –
20 | C#CCON=C(c1ccccc1)c1cnccn1 [Compound 26, phenyl pyrazinyl ketone, O-propargyl oxime] | – | – | 53% | –
21 | CN(C)CCCON=C(c1ccccc1)c1cnccn1 [Compound 27, phenyl pyrazinyl ketone, O-3-N,N-dimethylaminopropyl oxime.1 maleic acid] | 67% | 49% | 92% | –
22 | CN(C)CCON=C(c1ccccc1)c1cnccn1 [Compound 28, phenyl pyrazinyl ketone, O-2,N,N-dimethylaminoethyl oxime.1 maleic acid] | 56% | 59% | – | –
23 | CN(C)CCCON=C(c1ccccc1)c1cnc2ccccn12 [Compound 29, 3-imidazo[1,2-a]pyridinyl phenyl ketone, O-3-N,N-dimethylaminopropyl oxime.1/2 fumaric acid] | – | – | 75% | –
24 | CN(C)CCCON=C(c1ccccc1)c1ccc2ccccc2n1 [Compound 30, phenyl 2-quinolinyl ketone, O-3-N,N-dimethylaminopropyl oxime.1 fumaric acid] | 72% | 37% | 79% | –
25 | CN(C)CCCON=C(c1ccccc1)c1ncc[nH]1 [Compound 31, 2-imidazolyl phenyl ketone, O-3-N,N-dimethylaminopropyl oxime] | 80% | 72% | 56% | –
26 | CN(C)CCCON=C(c1ccccc1)c1nccn1C [Compound 32, 1-methyl-2-imidazolyl phenyl ketone, O-3-N,N-dimethylaminopropyl oxime] | 83% | 41% | – | –
27 | CN(C)CCCON=C(c1ccccc1)c1nc2ccccc2s1 [Compound 33, 2-benzothiazolyl phenyl ketone, O-3-N,N-dimethylaminopropyl oxime.1 fumaric acid] | 55% | 38% | 62% | –
28 | CN(C)CCCO/N=C(\c1ccccc1)c1nccs1 [Compound 34, phenyl 2-thiazolyl ketone, O-3-N,N-dimethylaminopropyl oxime.1 fumaric acid] | 82% | 42% | – | –
29 | CN(C)CCON=C(Cc1ccccn1)c1ccccc1 [phenyl 2-picolinyl ketone, O-dimethylaminoethyl oxime] | – | – | – | anti-androgenic activity [1]: showed anti-androgenic activity; effective dose versus toxic dose [1]: the effective dose was very close to the toxic dose
30 | C[N+](C)(C)CCON=C(c1ccccc1)c1ccccn1 [phenyl 2-pyridinyl ketone, O-dimethylaminoethyl oxime methiodide] | – | – | – | acetylcholine antagonistic activity [5]: showed acetylcholine antagonistic activity
31 | phenyl 2-pyridinyl ketone, O-di(m)ethylaminoethyl oxime | – | – | – | anti-androgenic activity [1]: showed anti-androgenic activity; effective dose versus toxic dose [1]: the effective dose was very close to the toxic dose
